What was measured:
[1] = tested on: PD-L1 on monocytes; assay: Surface expression of PD-L1 on primed monocytes, flow cytometry; assay type: cell-based, human; settings: polypeptide 10 μg/mL, 24 hours, MFI relative to medium control (FIG. 3B)
Procedure: (§1) (A) Monocytes were incubated with rsTLT-1 (10 μg/mL) for 3 days. At the indicated time point, the cells were harvested and the HLA-DR and PD-L1 molecules were analyzed using flow cytometry. […] (B) Monocytes were cultured with different concentrations of rsTLT-1 for 2 days. The cells were then harvested and the HLA-DR and PD-L1 molecules were analyzed using flow cytometry. Surface molecule expression is presented as the mean fluorescence intensity (MFI) relative to each day that the cells were treated with the control medium (dashed line). Values are presented as mean±SEM from 3 independent experiments.
(A) depicts structural characteristics of extracellular domain of TLT-1 and designed TLT-1 polypeptides. […] The cells were then harvested and the PD-L1 molecules were analyzed using flow cytometry. Surface molecule expression is presented as the MFI relative to each day that the cells were treated with the medium control (dashed line).
(§2) White blood cell concentrates from healthy volunteers were obtained from the Taiwan Blood Service Foundation (Taipei, Taiwan). Written informed consent was obtained for participation in the study, which was approved by the Institutional Review Board of the MacKay Memorial Hospital. Human monocytes were isolated as previously described. […]

[2] = tested on: HLA-DR on monocytes; assay: Surface expression of HLA-DR on primed monocytes, flow cytometry; assay type: cell-based, human; settings: polypeptide 10 μg/ml, 48 hours of incubation (FIG. 4)
Procedure: as §1
Monocytes were cultured with 10 μg/ml TLT-1 15-63 polypeptide and 10 μg/ml rsTLT-1 for 2 days. The cells were then harvested and the HLA-DR molecules were analyzed using flow cytometry. Surface molecule expression is presented as the MFI relative to each day that the cells were treated with the medium control (dashed line).
as §2, with “described. In brief, peripheral blood mononuclear cells (PBMCs) were isolated using Ficoll-Paque Plus (GE Healthcare) gradient centrifugation.” for “described.”

| Substance | PD-L1 surface expression on monocytes [1] | HLA-DR surface expression on monocytes [2] |
| --- | --- | --- |
| TLT-1 34-63: ILVQCHYRLQDVKAQKVWCRFLPEGCQPLV (SEQ ID NO: 9; same sequence as SEQ ID NO: 1) (Polypeptide name TLT-1 34-63) | induced PD-L1 expression |  |
| TLT-1 15-63: GQGIVGSLPEVLQAPVGSSILVQCHYRLQDVKAQKVWCRFLPEGCQPLV (SEQ ID NO: 7; same sequence as SEQ ID NO: 2) (Polypeptide name TLT-1 15-63) | significantly increased | decreased |

From patent publication US20180141991A1, “METHODS AND POLYPEPTIDES FOR MODULATION OF IMMUNORESPONSE” (Mackay Medical Foundation The Presbyterian Church In Taiwan …, priority 2015, published 2018)
